Literature values in patent US12297406B2, “Method for preparing a composition comprising cetylated fatty acids” (ALESCO S.R.L., priority 2019, dated 2025).

Details: European Union food additive E319

## CC(C)(C)c1cc(O)ccc1O [TBHQ, Tert-butyl-hydroquinone]
  acceptable daily intake (ADI): 0.7 mg/kg of body weight
